In PubChem BioAssay (NCI):
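Dose response: 5 concentrations. Exposure: 48 h. Format: 96-well plates. Endpoint: linear interpolation; highest concentration if not reached. TGI denotes the concentration required for complete inhibition of growth.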

Experiments:
Assay in all cases: NCI-60 cell line screen, 48 h
BT-549 breast = system: BT-549 breast
K-562 leukemia = system: K-562 leukemia
786-0 renal = system: 786-0 renal
CCRF-CEM leukemia = system: CCRF-CEM leukemia
SK-MEL-5 melanoma = system: SK-MEL-5 melanoma
NCI-H226 lung = system: NCI-H226 lung
HS 578T breast = system: HS 578T breast
SF-539 CNS = system: SF-539 CNS
MDA-MB-231 breast = system: MDA-MB-231 breast
T-47D breast = system: T-47D breast
HCC-2998 colon = system: HCC-2998 colon
SW-620 colon = system: SW-620 colon
MCF7 breast = system: MCF7 breast
SNB-19 CNS = system: SNB-19 CNS
OVCAR-3 ovarian = system: OVCAR-3 ovarian
MOLT-4 leukemia = system: MOLT-4 leukemia
SK-OV-3 ovarian = system: SK-OV-3 ovarian
HT29 colon = system: HT29 colon
M14 melanoma = system: M14 melanoma
HOP-92 NSCLC = system: HOP-92 NSCLC
A549 NSCLC = system: A549 NSCLC
SF-268 CNS = system: SF-268 CNS
NCI-H522 lung = system: NCI-H522 lung
SK-MEL-2 melanoma = system: SK-MEL-2 melanoma
MDA-MB-435 = system: MDA-MB-435
IGROV1 ovarian = system: IGROV1 ovarian
RPMI-8226 leukemia = system: RPMI-8226 leukemia
COLO 205 colon = system: COLO 205 colon
EKVX NSCLC = system: EKVX NSCLC
A498 renal = system: A498 renal
NCI/ADR-RES ovarian = system: NCI/ADR-RES ovarian
UACC-257 melanoma = system: UACC-257 melanoma
DU-145 prostate = system: DU-145 prostate
HOP-62 NSCLC = system: HOP-62 NSCLC
RXF 393 renal = system: RXF 393 renal
HCT-15 colon = system: HCT-15 colon
SK-MEL-28 melanoma = system: SK-MEL-28 melanoma
SN12C renal = system: SN12C renal
HCT-116 colon = system: HCT-116 colon
LOX IMVI melanoma = system: LOX IMVI melanoma
SF-295 CNS = system: SF-295 CNS
TK-10 renal = system: TK-10 renal
OVCAR-8 ovarian = system: OVCAR-8 ovarian
NCI-H23 lung = system: NCI-H23 lung
U251 CNS = system: U251 CNS
SNB-75 CNS = system: SNB-75 CNS
UO-31 renal = system: UO-31 renal
UACC-62 melanoma = system: UACC-62 melanoma
KM12 colon = system: KM12 colon
CAKI-1 renal = system: CAKI-1 renal
OVCAR-4 ovarian = system: OVCAR-4 ovarian
ACHN renal = system: ACHN renal
PC-3 prostate = system: PC-3 prostate
OVCAR-5 ovarian = system: OVCAR-5 ovarian

Measured: TGI

Cc1ccc(S(=O)(=O)CC2CCCn3c2c(C#N)c2ccccc23)cc1 (centres undefined)
> 100 µM: BT-549 breast | K-562 leukemia | 786-0 renal | CCRF-CEM leukemia | SK-MEL-5 melanoma | NCI-H226 lung | HS 578T breast | SF-539 CNS | MDA-MB-231 breast | T-47D breast | HCC-2998 colon | SW-620 colon | MCF7 breast | SNB-19 CNS | OVCAR-3 ovarian | MOLT-4 leukemia | SK-OV-3 ovarian | HT29 colon | M14 melanoma | HOP-92 NSCLC | A549 NSCLC | SF-268 CNS | NCI-H522 lung | SK-MEL-2 melanoma | MDA-MB-435 | IGROV1 ovarian | RPMI-8226 leukemia | COLO 205 colon | EKVX NSCLC | A498 renal | NCI/ADR-RES ovarian | UACC-257 melanoma | DU-145 prostate | HOP-62 NSCLC | RXF 393 renal | HCT-15 colon | SK-MEL-28 melanoma | SN12C renal | HCT-116 colon | LOX IMVI melanoma | SF-295 CNS | TK-10 renal | OVCAR-8 ovarian | NCI-H23 lung | U251 CNS | SNB-75 CNS | UO-31 renal | UACC-62 melanoma | KM12 colon | CAKI-1 renal | OVCAR-4 ovarian | ACHN renal | PC-3 prostate | OVCAR-5 ovarian
